Laboratory results: patent US20060281769A1, “SYNERGISTIC MODULATION OF FLT3 KINASE USING THIENOPYRIMIDINE AND THIENOPYRIDINE KINASE MODULATORS” (priority 2005, published 2006)
“Also recorded” adds a separate entry of the source.

Tests used:
MV4-11 AML cells = test: Cell proliferation assay MV4-11, single agents and FTI/FLT3 inhibitor combinations; type: cell-based, human; settings: 72-hour cell proliferation assay, FLT3 dependent cells, depending on the cell type
Description: (§1) All data points are an average of triplicate samples.
as §1

[1] = Tolerability in tumor-bearing nude mice (body weight, overt clinical signs); settings: either agent alone or in combination
Description: Female athymic nude mice weighing no less than 20-21 grams were inoculated subcutaneously in the left inguinal region of the thigh with 5×10^6 tumor cells in a delivery volume of 0.2 mL. For regression studies, the tumors were allowed to grow to a pre-determined size prior to initiation of dosing. […] Mice were dosed orally by gavage with vehicle (control group) or compound at various doses twice-daily (b.i.d.) during the week and once-daily (q.d.) on weekends. Dosing was continued for 11 consecutive days, depending on the kinetics of tumor growth and size of tumors in vehicle-treated control mice. […] During the study, tumor growth was measured three times-a-week (M, W, F) using electronic Vernier calipers. Tumor volume (mm^3) was calculated using the formula […], where L=length (mm) and W=width (shortest distance in mm) of the tumor. Body weight was measured three times-a-week and a loss of body weight >10% was used as an indication of lack of compound tolerability. […]
Female athymic nude mice weighing no less than 20-21 grams were inoculated subcutaneously in the left inguinal region of the thigh with 5×10^6 tumor cells in a delivery volume of 0.2 mL. For regression studies, the tumors were allowed to grow to a pre-determined size prior to initiation of dosing. […] During the study, tumor growth was measured three times-a-week (M, W, F) using electronic Vernier calipers. […]

[2] = system: relapsed and refractory AML; settings: cited from earlier work
MV4-11 tumor xenografts = test: MV4-11 human tumor xenograft regression model in nude mice; type: in vivo; settings: Tipifarnib 50 mg/kg oral single agent
Description: Female athymic nude mice (CD-1, nu/nu, 9-10 weeks old) were obtained from Charles River Laboratories (Wilmington, Mass.) and were maintained according to NIH standards. All mice were group housed (5 mice/cage) under clean-room conditions in sterile micro-isolator cages on a 12-hour light/dark cycle in a room maintained at 21-22° C. and 40-50% humidity. Mice were fed irradiated standard rodent diet and water ad libitum. All animals were housed in a Laboratory Animal Medicine facility that is fully accredited by the American Association for Assessment and Accreditation of Laboratory Animal Care (AAALAC). All procedures involving animals were conducted in compliance with the NIH Guide for the Care and Use of Laboratory Animals and all protocols were approved by an Internal Animal Care and Use Committee (IACUC).
On the day of study termination, a final tumor volume and final body weight were obtained on each animal. […]
The time course of the inhibitory effects of FLT3 inhibitor compounds on the growth of MV4-11 tumors is illustrated in FIG. 1. […] Percent inhibition (% I) of tumor growth was calculated versus tumor growth in the vehicle-treated Control group on the last study day.
(See FIG. 2). […] Percent Inhibition was calculated versus the mean tumor weight in the vehicle-treated control group. Statistical significance versus Control was determined by ANOVA followed by Dunnett's t-test: ** p<0.01. […]

[3] = multicenter Phase II trial, relapsed AML
[4] = patients with relapsed and refractory AML, phase I

With `Cn1cncc1C(N)(c1ccc(Cl)cc1)c1ccc2c(c1)c(-c1cccc(Cl)c1)cc(=O)n2C` (single isomer, unassigned; (+)) [Tipifarnib, (+)-6-[amino(4-chlorophenyl)(1-methyl-1H-imidazol-5-yl)methyl]-4-(3-chlorophenyl)-1-methyl-2(1H)-quinolinone] the “potency for inhibition of proliferation, single agent” value (MV4-11 AML cells) was “high nanomolar to high picomolar”, the “overt toxicity and adverse effects on body weight” value ([1]; 9-day treatment period) was “No overt toxicity” and the “overt toxicity and adverse effects on body weight” value ([1]; 16-day treatment period) was “No overt toxicity”. The “>50% reduction in bone marrow blasts” value [2, 3] was 31 of 50, the “complete responses (bone marrow blasts <5%)” value [2, 3] was 17 of 50 and the “patients achieving complete remission” value [2, 4] was 2 patients. The response rate [2, 4] was roughly 30%, the “effect on tumor volume versus control” value (MV4-11 tumor xenografts; nine days, Day 9) was “not significantly reduced; also recorded: ineffective” and the “effect on tumor growth” value (MV4-11 tumor xenografts; sixteen days) was “ineffective”.
